# Where “and” joins values, the source holds several entries; their conditions need not be identical. Equal values may be shown once. Numbered stars: 1 amine (or outer) side, 2 acyl side, 3 side chain; on linkers, the order of the positions; unused ones are H or OH. Bridge positions count the residues as written; N and C are the ends. Square brackets hold non-standard residues; d marks the D form. Peptide text beside a SMILES is read from it. * marks the point of attachment. X1 = CC(C)C(C)C(C(=O)[*:2])N(C)[*:1]; Picolinoyl(3-OH) = O=C(c1ncccc1O)*; NMePhg = CN[CH](C(=O)O)c1ccccc1; Hyp = O=C(O)[CH]1C[CH](O)CN1; Sar = CNCC(=O)O
# System: Swiss mice, Sarcoma 180 sc, mean tumor weight T/C
# Assay: NCI In Vivo Anticancer Drug Screen. Data for tumor model Sarcoma 180 (subcutaneous) in Swiss mice
# Details: endpoint: mean tumor weight, higher = larger tumour
# Description: The antitumor activity of compounds was measured in mice bearing transplantable tumors. Survival or tumor size were measured and the results are expressed as the measurement made in the treated group (T) divided by the measurement made in the vehicle treated control group (C). The tumor model used in this assay is Sarcoma 180 (subcutaneous) in Swiss mice
# [1] = dose: 125.0 mg/kg/injection, schedule: Q01DX007 (ip), vehicle: carboxymethylcellulose (CMC)
# [2] = dose: 2.0 mg/kg/injection, schedule: Q01DX007 (ip), vehicle: carboxymethylcellulose (CMC)
# [3] = dose: 4.0 mg/kg/injection, schedule: Q01DX007 (ip), vehicle: carboxymethylcellulose (CMC)
smiles,measurement,setting,value
Nc1ccc2c(c1)Cc1cc(NC=O)ccc1-2,T/C,"dose: 55.5 mg/kg/injection, schedule: Q01DX007 (ip), vehicle: carboxymethylcellulose (CMC)",98 % of control
same,T/C,"dose: 83.3 mg/kg/injection, schedule: Q01DX007 (ip), vehicle: carboxymethylcellulose (CMC)",52 % of control
same,T/C,[1],72 % of control
same,T/C,"dose: 187.5 mg/kg/injection, schedule: Q01DX007 (ip), vehicle: carboxymethylcellulose (CMC)",36 % of control
CC1=C(CO)C(=O)O[C@@H]([C@@H](C)[C@H]2CC[C@H]3[C@@H]4C[C@H]5O[C@]56[C@@H](O)C=CC(=O)[C@]6(C)[C@H]4CC[C@]23C)C1,T/C,"dose: 10.0 mg/kg/injection, schedule: Q01DX007 (ip), vehicle: carboxymethylcellulose (CMC)",64 % of control
same,T/C,"dose: 13.3 mg/kg/injection, schedule: Q01DX007 (ip), vehicle: saline",97 % of control
same,T/C,"dose: 13.7 mg/kg/injection, schedule: Q01DX007 (ip), vehicle: saline",85 % of control
same,T/C,"dose: 16.0 mg/kg/injection, schedule: Q01DX007 (ip), vehicle: saline",77 % of control
same,T/C,"dose: 16.0 mg/kg/injection, schedule: Q01DX007 (sc), vehicle: olive oil, sesame oil, peanut oil",90 % of control
same,T/C,"dose: 16.0 mg/kg/injection, schedule: Q01DX007 (sc), vehicle: steriod suspending solution",93 % of control
same,T/C,"dose: 18.0 mg/kg/injection, schedule: Q01DX007 (ip), vehicle: saline",60 % of control
same,T/C,"dose: 24.0 mg/kg/injection, schedule: Q01DX007 (ip), vehicle: saline",54 % of control
same,T/C,"dose: 24.0 mg/kg/injection, schedule: Q01DX007 (sc), vehicle: olive oil, sesame oil, peanut oil",109 % of control
same,T/C,"dose: 24.0 mg/kg/injection, schedule: Q01DX007 (sc), vehicle: steriod suspending solution",66 % of control
same,T/C,"dose: 33.0 mg/kg/injection, schedule: Q01DX007 (ip), vehicle: saline",25 % of control
same,T/C,"dose: 36.0 mg/kg/injection, schedule: Q01DX007 (sc), vehicle: olive oil, sesame oil, peanut oil",77 % of control
same,T/C,"dose: 36.0 mg/kg/injection, schedule: Q01DX007 (sc), vehicle: steriod suspending solution",79 % of control
O=C(NCCCCCCCCCCNC(=O)N1CC1)N1CC1,T/C,"dose: 0.9 mg/kg/injection, schedule: Q01DX007 (ip), vehicle: carboxymethylcellulose (CMC)",66 % of control and 83 % of control
same,T/C,"dose: 0.9 mg/kg/injection, schedule: Q01DX007 (ip), vehicle: saline",70 % of control
same,T/C,"dose: 1.3 mg/kg/injection, schedule: Q01DX007 (ip), vehicle: carboxymethylcellulose (CMC)",64 % of control and 65 % of control
same,T/C,"dose: 1.3 mg/kg/injection, schedule: Q01DX007 (ip), vehicle: saline",67 % of control
same,T/C,[2],35 % of control and 43 % of control
same,T/C,"dose: 2.0 mg/kg/injection, schedule: Q01DX007 (ip), vehicle: saline",48 % of control
same,T/C,"dose: 3.0 mg/kg/injection, schedule: Q01DX007 (ip), vehicle: carboxymethylcellulose (CMC)",10 % of control and 21 % of control
same,T/C,"dose: 3.0 mg/kg/injection, schedule: Q01DX007 (ip), vehicle: saline",34 % of control
same,T/C,[3],38 % of control
O=C(O)CCc1c[nH]c2ccc(N(CCCl)CCCl)cc12,T/C,[2],47 % of control
same,T/C,[3],32 % of control
CCOC(=O)CCCc1ccc(N=NN(C)C)cc1,T/C,"dose: 20.0 mg/kg/injection, schedule: Q01DX007 (ip), vehicle: saline",99 % of control
same,T/C,"dose: 30.0 mg/kg/injection, schedule: Q01DX007 (ip), vehicle: saline",69 % of control
same,T/C,"dose: 40.0 mg/kg/injection, schedule: Q01DX007 (ip), vehicle: saline",63 % of control
same,T/C,"dose: 60.0 mg/kg/injection, schedule: Q01DX007 (ip), vehicle: saline",68 % of control
same,T/C,"dose: 75.0 mg/kg/injection, schedule: Q01DX007 (ip), vehicle: saline",38 % of control
same,T/C,"dose: 100.0 mg/kg/injection, schedule: Q01DX007 (ip), vehicle: saline",44 % of control
same,T/C,"dose: 150.0 mg/kg/injection, schedule: Q01DX007 (ip), vehicle: saline",31 % of control
same,T/C,"dose: 200.0 mg/kg/injection, schedule: Q01DX007 (ip), vehicle: saline",12 % of control
COc1ccc2c(=O)oc3c(OC)cc(CCN(C)C)c4c(=O)oc1c2c34,T/C,"dose: 0.8 mg/kg/injection, schedule: Q01DX007 (ip), vehicle: water",113 % of control
same,T/C,"dose: 1.6 mg/kg/injection, schedule: Q01DX007 (ip), vehicle: water",77 % of control
same,T/C,"dose: 3.2 mg/kg/injection, schedule: Q01DX007 (ip), vehicle: water",108 % of control
same,T/C,"dose: 6.3 mg/kg/injection, schedule: Q01DX007 (ip), vehicle: water",86 % of control
O=C(N[C@H](CO)[C@H](O)c1ccc([N+](=O)[O-])cc1)C(Cl)Cl,T/C,[1],99 % of control
same,T/C,"dose: 250.0 mg/kg/injection, schedule: Q01DX007 (ip), vehicle: carboxymethylcellulose (CMC)",111 % of control and 112 % of control
same,T/C,"dose: 375.0 mg/kg/injection, schedule: Q#A X014 (ip), vehicle: carboxymethylcellulose (CMC)",45 % of control
same,T/C,"dose: 400.0 mg/kg/injection, schedule: Q01DX007 (ip), vehicle: carboxymethylcellulose (CMC)",76 % of control
same,T/C,"dose: 666.66 mg/kg/injection, schedule: Q01DX007 (ip), vehicle: carboxymethylcellulose (CMC)",105 % of control
same,T/C,"dose: 1000.0 mg/kg/injection, schedule: Q01DX007 (ip), vehicle: carboxymethylcellulose (CMC)",97 % of control
CC(C)CC1NC(=O)C(NC(=O)c2ncccc2O)C(C)OC(=O)C(c2ccccc2)N(C)C(=O)C(C)NC(=O)C(C(C)C(C)C)N(C)C(=O)CN(C)C(=O)C2CC(O)CN2C1=O (configuration not stated) ({Picolinoyl(3-OH)}-TL[Hyp][Sar][X1]A[NMePhg]; ester 1-C; configuration not given here),T/C,"dose: 6.25 mg/kg/injection, schedule: Q01DX007 (ip), vehicle: carboxymethylcellulose (CMC)",85 % of control
same,T/C,"dose: 25.0 mg/kg/injection, schedule: Q01DX007 (ip), vehicle: carboxymethylcellulose (CMC)",106 % of control
same,T/C,"dose: 50.0 mg/kg/injection, schedule: Q01DX007 (ip), vehicle: carboxymethylcellulose (CMC)",114 % of control
same,T/C,"dose: 75.0 mg/kg/injection, schedule: Q01DX007 (ip), vehicle: carboxymethylcellulose (CMC)",67 % of control
same,T/C,"dose: 100.0 mg/kg/injection, schedule: Q01DX007 (ip), vehicle: carboxymethylcellulose (CMC)",100 % of control
same,T/C,"dose: 200.0 mg/kg/injection, schedule: Q01DX007 (ip), vehicle: carboxymethylcellulose (CMC)",98 % of control
